{
  "source": "patent US11963966B2",
  "about": "“Compositions and methods for treating ovarian tumors” (Dana-Farber Cancer Institute, Inc., priority 2017, dated 2024)",
  "key": {"PDX model DF20 SC tumors": {"system": "PDX model DF20 SC tumors", "assay": "PDX model DF20, SC injected cancer cells, IP JSI-124 vs vehicle, BLI", "assay_type": "in vivo, mice", "description": "(§1) FIG. 7A-FIG. 7E are a series of graphs and images that depict the impact of JAK/STAT-inhibition on spheroid formation in vivo and anti-tumor activity. […] Each of these were performed following intraperitoneal (IP) or subcutaneous (SC) injection of cancer cells followed by IP therapy with JSI-124 vs. vehicle. Each group includes 5 mice. The inverted triangle indicates the time=0 of cancer cell injection. […] Mice were injected IP with tumor cells and one week later started treatment for a total 14 days. Each group includes 5 mice. Y-axis indicates log of bioluminescence imaging (BLI) signal (log total flux in p/s). Values are given as mean of log BLI signal, error bars indicate standard deviation from the mean. ***p<0.0001 (two-sided t test comparing mean±STDEV at Day 15 of treatment). […] Each group includes 5 mice. Y-axis indicates log BLI signal (log total flux in p/s). Values are given as mean of log BLI signal, error bars indicate standard deviation from the mean. ***p<0.0001 (two-sided t test comparing mean±STDEV at Day 15 of treatment). […] Mice were injected SC with tumor cells and one week later started treatment for a total 14 days. Each group includes 5 mice. Y-axis indicates log BLI signal (log total flux in p/s). Values are given as mean of log BLI signal, error bars indicate standard deviation from the mean. ***p<0.0001 (two-sided t test comparing mean±STDEV at Day 15 of treatment). […] Each group includes 5 mice. Y-axis indicates log BLI signal (log total flux in p/s). Values are given as mean of log BLI signal, error bars indicate standard deviation from the mean. ***p<0.0001 (two-sided t test comparing mean±STDEV at Day 15 of treatment).\n(§2) A frequently used treatment modality for advanced ovarian cancer is the intraperitoneal administration of chemotherapy, such as cisplatin, which has local effects, but is also systemically reabsorbed to treat potential metastatic disease. […] Tumor growth was compared following IP JSI-124 treatment v. vehicle."}, "[1]": {"system": "established ovarian cancer cell lines (OVCAR4, OVCAR8, OVASHO, TYKNU, Kuramachi)", "assay": "Spheroid formation in low adherent surface culture", "assay_type": "cell-based", "description": "FIG. 6A-FIG. 6G are a series of graphs and images depicting the impact of JAK/STAT-inhibition on spheroid formation, invasion and killing ex vivo and in vitro. FIG. 6A a histogram (FIG. 11B), showing drug screening with 14 compounds (at 1 μM) inhibiting the JAK/STAT pathway in OVACR4. Relative viability compared to DMSO control measured by CTG. […] The same library was screened in 2D-cultures of OVACR4 (FIG. 11A), and 2D-cultures of OVACR8 (FIG. 11C) and 3D-cultures of OVACR8 (FIG. 11D). FIG. 6B is a series of plots showing drug sensitivity testing using the GILA assay in platinum-resistant ex vivo spheroid cultures of patients DF3291 and DF3266, The X-axis indicates the log μM concentration of drugs indicated in the legend, Y-axis indicates the percentage of luminescence signal as indicator for viability relatively to DMSO treated cells. In both patients, half maximal effective concentration (EC50) were ˜100 nM and ˜10 nM, respectively, while other drugs routinely used for the treatment of (platinum-resistant) ovarian cancer had EC50>10 μM. FIG. 6C is a series of images of microscopic analysis of spheroids with different drug treatments to highlight the morphologic changes during therapy with drugs listed. Inhibition of JAK/STAT pathway disrupts ex vivo spheroid cultures. […] The X-axis indicates established ovarian cancer cell line ID. Y-axis indicates the relative number of formed spheroids when treated with either JSI-124 or carboplatin compared to untreated parental controls. Error bars indicate the standard deviation from the mean number of spheroids. […] JAK/STAT inhibition prevents spheroid formation. […] The Y-axis indicates the clearance ability (using arbitrary units). 20 spheroids clusters were analyzed for each iteration. Data is shown as mean (horizontal bar), interquartile range (box), and minimum and maximum (whiskers). Statistical analysis was performed using 1-way analysis of variance (ANOVA) and post hoc Tukey-Kramer **P<0.05. […] FIG. 6G is a histogram showing the inhibition of the JAK/STAT pathway. […]"}, "[2]": {"system": "STAT3 activity in Heya8 cells", "assay": "STAT3-dependent luciferase assay after oncostatin M (OSM) stimulation", "assay_type": "cell-based", "settings": "Heya8 cells pre-treated 1 hour vs DMSO, then OSM stimulation"}, "[3]": {"assay": "Adverse effects in JSI-124 treated PDX mice", "assay_type": "in vivo", "settings": "IP JSI-124 treated PDX mice", "description": "as §2"}, "[4]": {"system": "platinum-resistant ex vivo spheroid cultures of patients DF3266, DF3288, DF3291", "assay": "Drug sensitivity testing with the growth in low attachment (GILA) assay", "assay_type": "cell-based", "description": "FIG. 6A-FIG. 6G are a series of graphs and images depicting the impact of JAK/STAT-inhibition on spheroid formation, invasion and killing ex vivo and in vitro. FIG. 6A a histogram (FIG. 11B), showing drug screening with 14 compounds (at 1 μM) inhibiting the JAK/STAT pathway in OVACR4. Relative viability compared to DMSO control measured by CTG. […] The same library was screened in 2D-cultures of OVACR4 (FIG. 11A), and 2D-cultures of OVACR8 (FIG. 11C) and 3D-cultures of OVACR8 (FIG. 11D). FIG. 6B is a series of plots showing drug sensitivity testing using the GILA assay in platinum-resistant ex vivo spheroid cultures of patients DF3291 and DF3266, The X-axis indicates the log μM concentration of drugs indicated in the legend, Y-axis indicates the percentage of luminescence signal as indicator for viability relatively to DMSO treated cells. In both patients, half maximal effective concentration (EC50) were ˜100 nM and ˜10 nM, respectively, while other drugs routinely used for the treatment of (platinum-resistant) ovarian cancer had EC50>10 μM. FIG. 6C is a series of images of microscopic analysis of spheroids with different drug treatments to highlight the morphologic changes during therapy with drugs listed. Inhibition of JAK/STAT pathway disrupts ex vivo spheroid cultures. […] The X-axis indicates established ovarian cancer cell line ID. Y-axis indicates the relative number of formed spheroids when treated with either JSI-124 or carboplatin compared to untreated parental controls. Error bars indicate the standard deviation from the mean number of spheroids. […] JAK/STAT inhibition prevents spheroid formation. […] The Y-axis indicates the clearance ability (using arbitrary units). 20 spheroids clusters were analyzed for each iteration. Data is shown as mean (horizontal bar), interquartile range (box), and minimum and maximum (whiskers). Statistical analysis was performed using 1-way analysis of variance (ANOVA) and post hoc Tukey-Kramer **P<0.05. […] FIG. 6G is a histogram showing the inhibition of the JAK/STAT pathway.\nSingle-cell RNA-sequencing was performed on these platinum-resistant patient samples, using the growth in low attachment (GILA) assay (Rotem et al., 2015 Proc. Natl. Acad. Sci. U.S.A, 112:5708-5713; B. Izar and A. Rotem, 2016 Curr. Protoc. Mol. Biol., 116:28.8.1-28.8.12). […] In contrast, all spheroid cultures were resistant to carboplatin, cisplatin, olaparib and paclitaxel at a similar dose range, with the exception of cisplatin with an EC50 of ˜10 μM in patients DF3266 and DF3288."}, "[5]": {"system": "patient ascites-derived spheroids", "assay": "Mesothelial clearance (invasion through mesothelial monolayer)", "assay_type": "cell-based", "settings": "pre-treatment 30 or 120 minutes followed by drug removal", "description": "(§3) FIG. 6A-FIG. 6G are a series of graphs and images depicting the impact of JAK/STAT-inhibition on spheroid formation, invasion and killing ex vivo and in vitro. FIG. 6A a histogram (FIG. 11B), showing drug screening with 14 compounds (at 1 μM) inhibiting the JAK/STAT pathway in OVACR4. Relative viability compared to DMSO control measured by CTG. […] The same library was screened in 2D-cultures of OVACR4 (FIG. 11A), and 2D-cultures of OVACR8 (FIG. 11C) and 3D-cultures of OVACR8 (FIG. 11D). FIG. 6B is a series of plots showing drug sensitivity testing using the GILA assay in platinum-resistant ex vivo spheroid cultures of patients DF3291 and DF3266, The X-axis indicates the log μM concentration of drugs indicated in the legend, Y-axis indicates the percentage of luminescence signal as indicator for viability relatively to DMSO treated cells. In both patients, half maximal effective concentration (EC50) were ˜100 nM and ˜10 nM, respectively, while other drugs routinely used for the treatment of (platinum-resistant) ovarian cancer had EC50>10 μM. FIG. 6C is a series of images of microscopic analysis of spheroids with different drug treatments to highlight the morphologic changes during therapy with drugs listed. Inhibition of JAK/STAT pathway disrupts ex vivo spheroid cultures. […] 20 spheroids clusters were analyzed for each iteration. […]"}, "[6]": {"system": "spheroids of ovarian cancer cell lines OVCAR8 and TKYNU", "assay": "Mesothelial clearance (invasion through mesothelial monolayer)", "assay_type": "cell-based", "settings": "treatment 30 minutes followed by drug removal", "description": "as §3"}, "[7]": {"system": "PDX model DF20 malignant ascites", "assay": "PDX model DF20, IP injected cancer cells (malignant ascites), IP JSI-124 vs vehicle, BLI", "assay_type": "in vivo, mice", "description": "as §1"}, "[8]": {"settings": "SC tumors established 3 weeks, then IP treatment 14 days"}, "[9]": {"settings": "SC tumors established 7 days, then 14 days IP therapy"}, "[10]": {"settings": "ascites allowed to form 3 weeks, then IP treatment 14 days"}, "[11]": {"settings": "tumor cells IP, 7 days growth, then 14 days IP therapy"}},
  "note": "“Also recorded” adds a separate entry of the source. Read-outs that look alike come from different tables or passages of the source.",
  "data": [
    {"compound": "CC(C)(O)/C=C/C(=O)[C@](C)(O)[C@H]1[C@@H](O)C[C@@]2(C)[C@@H]3CC=C4[C@H](C=C(O)C(=O)C4(C)C)[C@]3(C)C(=O)C[C@]12C", "note": "[JSI-124, cucurbitacin I]", "values": [
      {"measurement": "Established SC tumors", "setting": "PDX model DF20 SC tumors; [8]", "value": "significant and near complete elimination of SC tumors"},
      {"measurement": "mean day 15 log BLI signal±standard deviation", "setting": "PDX model DF20 SC tumors; [8]", "value": "8.52×10^8±3.1×10^8 p/s"},
      {"measurement": "Growth of SC tumors", "setting": "PDX model DF20 SC tumors; [9]", "value": "significantly inhibit development of tumors growth of SC tumors"},
      {"measurement": "mean day 15 log BLI signal±standard deviation", "setting": "PDX model DF20 SC tumors; [9]", "value": "5.55×10^8±2.2×10^8 p/s"},
      {"measurement": "Number of spheroids vs DMSO control", "setting": "[1]; Kuramachi", "value": "significantly reduced the number of spheroids"},
      {"measurement": "Formation of spheroids vs DMSO control", "setting": "[1]; OVCAR4, OVCAR8, OVASHO, TYKNU", "value": "completely abrogated the formation of spheroids"},
      {"measurement": "STAT3-dependent luciferase activity", "setting": "[2]", "value": "significant reduction in STAT-dependent expression"},
      {"measurement": "Adverse effect (body weight, ascites/edema)", "setting": "[3]", "value": "increased weight due to increased non-malignant ascites"},
      {"measurement": "Emax", "setting": "[4]; Homo sapiens", "value": "≤ 99", "unit": "%"},
      {"measurement": "EC50", "setting": "[4]; Homo sapiens, read-out: EC50 (viability, luminescence relative to DMSO), patient DF3266", "value": "~10", "unit": "nM"},
      {"measurement": "EC50", "setting": "[4]; Homo sapiens, read-out: EC50 (viability, luminescence relative to DMSO), patient DF3291", "value": "~100", "unit": "nM"},
      {"measurement": "EC50 values, single-agent cytotoxic activity", "setting": "[4]; all tested models (DF3266, DF3288, DF3291)", "value": "nanomolar ranges"},
      {"measurement": "Ability to invade (clear) the mesothelial monolayer", "setting": "[5]", "value": "significantly reduced ability to invade the mesothelial monolayer; also recorded: unable to invade through the mesothelial monolayer"},
      {"measurement": "Ability to invade the mesothelium", "setting": "[6]", "value": "abolished their ability to invade the mesothelium; also recorded: unable to invade through the mesothelial monolayer"},
      {"measurement": "BLI signal of established malignant ascites", "setting": "[7]; [10]", "value": "significant reduction in BLI signal of malignant ascites"},
      {"measurement": "mean day 15 log BLI signal±standard deviation", "setting": "[7]; [10]", "value": "1.29×10^9±6×10^8 p/s"},
      {"measurement": "Development of malignant ascites", "setting": "[7]; [11]", "value": "completely abrogated development of malignant ascites"},
      {"measurement": "mean day 15 log BLI signal±standard deviation", "setting": "[7]; [11]", "value": "1.47×10^8±6.5×10^7 p/s"}
    ]}
  ]
}
